Results from US20210386367A1, “DEVICES AND SYSTEMS FOR GASTROINTESTINAL MICROBIOME DETECTION AND MANIPULATION” (Progenity, Inc., priority 2018, published 2021).
Converted amounts (≈) assume the structure as drawn.

Assays:
[1] = tested on: Streptococcus spp. spontaneous mutants; test: organism not typed; type: cell-based
Experimental: (§1) Select isolates were subcultured onto agar containing drug at the selection concentration, were identified by MALDI, and were frozen for broth microdilution MIC testing as described below.
(§2) To determine whether colonies growing on drug selection plates had elevated MIC values to the selecting antibiotic, susceptibility testing by broth microdilution was conducted on isolated mutants following methodology recommended by CLSI (1), (2), and (3) “Performance Standards for Antimicrobial Susceptibility Testing; Twenty-Eighth Informational Supplement.,” CLSI document M100-S28, 2018.
(§3) All wells in columns 2 through 12 of a standard 96-well microdilution plate (Costar 3795) were filled with 150 μL of the appropriate diluent. Then, 300 μL of the test agents were added to the wells of column 1 of the plates at […] the highest final concentration to be tested. Serial two-fold dilutions were made across the rows through column 11 using the Biomek 2000. The wells of column 12 contained no drug and served as the growth control wells. This plate served as the “mother plate” from which selected MIC assay plates or “daughter plates” were made.
(§4) 2 μL of drug solution from each well of a mother plate was added to each corresponding well of the daughter plate in a single step. A standardized inoculum of each aerobic test organism was prepared per CLSI methods to equal a 0.5 McFarland standard, followed by a dilution of 1:20 in MHB II. The plates were then inoculated with 10 μL of the diluted inoculum using the Biomek 2000 from low to high drug concentration, resulting in a final concentration of approximately 5×10^5 CFU/mL. An un-inoculated plate was incubated for the purpose of assessing solubility of the drug in the test media.
(§5) The plates for the aerobic tests were stacked 3-4 high, covered with a sterile lid on the top plate, and incubated aerobically at 35° C. for 18-20 hr. The MIC was recorded as the lowest concentration of drug that inhibited visible growth of the organism.

[2] = tested on: E. coli spontaneous mutants; test: Broth microdilution MIC of spontaneous mutants; type: cell-based, Escherichia coli
Experimental: as §1, §2, §3, §4, §5

[3] = tested on: Bacteroides spp. spontaneous mutants; test: Broth microdilution MIC of spontaneous mutants; type: cell-based
Experimental: as §1, §2, §3
Daughter plates for anaerobic organisms were transferred to a Bactron II anaerobic chamber (Sheldon Manufacturing Inc., Cornelius, Oreg.) to reduce for 1 hour prior to inoculation. The inoculum for each organism was prepared in the anaerobic chamber and dispensed into sterile disposable reservoirs. Inoculation was completed using a multichannel pipette to transfer 10 μL of the inoculum into each well of the daughter plate. This yielded a final cell concentration in the daughter plates of approximately 1×10^6 CFU/mL.

COc1c(N2C[C@@H]3CCCN[C@@H]3C2)c(F)cc2c(=O)c(C(=O)O)cn(C3CC3)c12 [MOX]
MIC ([1]; S. agaloctiae ATCC 13813, selected on rifaximin 4X MIC, Colony A): 0.06 µg/mL (≈ 0.149 µM) | MIC ([1]; S. agaloctiae ATCC 13813, selected on rifaximin 4X MIC, Colony B): 0.06 µg/mL (≈ 0.149 µM) | MIC ([1]; S. agaloctiae ATCC 13813, selected on rifaximin 8X MIC, Colony A): 0.06 µg/mL (≈ 0.149 µM) | MIC ([1]; S. agaloctiae ATCC 13813, selected on rifaximin 8X MIC, Colony B): 0.03 µg/mL (≈ 0.0747 µM) | MIC ([1]; S. agaloctiae ATCC 13813 Parent): 0.06 µg/mL (≈ 0.149 µM) | MIC ([1]; S. pneumoniae ATCC 49619, selected on rifaximin 4X MIC, Colony A): 0.06 µg/mL (≈ 0.149 µM) | MIC ([1]; S. pneumoniae ATCC 49619, selected on rifaximin 4X MIC, Colony B): 0.06 µg/mL (≈ 0.149 µM) | MIC ([1]; S. pneumoniae ATCC 49619, selected on rifaximin 8X MIC, Colony A): 0.06 µg/mL (≈ 0.149 µM) | MIC ([1]; S. pneumoniae ATCC 49619, selected on rifaximin 8X MIC, Colony B): 0.06 µg/mL (≈ 0.149 µM) | MIC ([1]; S. pneumoniae ATCC 49619 Parent): 0.12 µg/mL (≈ 0.299 µM) | MIC ([1]; S. pyogenes ATCC 49399, selected on rifaximin 4X MIC, Colony A): 0.06 µg/mL (≈ 0.149 µM) | MIC ([1]; S. pyogenes ATCC 49399, selected on rifaximin 4X MIC, Colony B): 0.06 µg/mL (≈ 0.149 µM) | MIC ([1]; S. pyogenes ATCC 49399, selected on rifaximin 8X MIC, Colony A): 0.06 µg/mL (≈ 0.149 µM) | MIC ([1]; S. pyogenes ATCC 49399, selected on rifaximin 8X MIC, Colony B): 0.06 µg/mL (≈ 0.149 µM) | MIC ([1]; S. pyogenes ATCC 49399 Parent): 0.06 µg/mL (≈ 0.149 µM) | MIC ([2]; E. coli ATCC 25922, selected on rifaximin 4X MIC, Colony A): 0.015 µg/mL | MIC ([2]; E. coli ATCC 25922, selected on rifaximin 4X MIC, Colony B): 0.015 µg/mL | MIC ([2]; E. coli ATCC 25922, selected on rifaximin 8X MIC, Colony A): 0.015 µg/mL | MIC ([2]; E. coli ATCC 25922, selected on rifaximin 8X MIC, Colony B): 0.015 µg/mL | MIC ([2]; E. coli ATCC 25922 Parent (Table 52)): 0.03 µg/mL | MIC ([2]; E. coli ATCC 35218, selected on rifaximin 4X MIC, Colony A): 0.03 µg/mL | MIC ([2]; E. coli ATCC 35218, selected on rifaximin 4X MIC, Colony B): 0.03 µg/mL | MIC ([2]; E. coli ATCC 35218, selected on rifaximin 8X MIC, Colony A): 0.03 µg/mL | MIC ([2]; E. coli ATCC 35218, selected on rifaximin 8X MIC, Colony B): 0.03 µg/mL | MIC ([2]; E. coli ATCC 35218 Parent (Table 52)): 0.03 µg/mL | MIC ([2]; E. coli MMX 1312, selected on ceftriaxone 4X MIC, Colony A): 0.03 µg/mL | MIC ([2]; E. coli MMX 1312, selected on ceftriaxone 4X MIC, Colony B): 0.06 µg/mL | MIC ([2]; E. coli MMX 1312, selected on ceftriaxone 4X MIC, Colony C): 0.03 µg/mL | MIC ([2]; E. coli MMX 1312, selected on ceftriaxone 8X MIC, Colony A): 0.03 µg/mL | MIC ([2]; E. coli MMX 1312, selected on ceftriaxone 8X MIC, Colony B): 0.03 µg/mL | MIC ([2]; E. coli MMX 1312, selected on ceftriaxone 8X MIC, Colony C): 0.03 µg/mL | MIC ([2]; E. coli MMX 1312, selected on rifaximin 4X MIC, Colony A): 0.03 µg/mL | MIC ([2]; E. coli MMX 1312, selected on rifaximin 4X MIC, Colony B): 0.03 µg/mL | MIC ([2]; E. coli MMX 1312, selected on rifaximin 8X MIC, Colony A): 0.03 µg/mL | MIC ([2]; E. coli MMX 1312, selected on rifaximin 8X MIC, Colony B): 0.03 µg/mL | MIC ([2]; E. coli MMX 1312 Parent): 0.03 µg/mL | MIC ([2]; E. coli MMX 1312 Parent (Table 49)): 0.03 µg/mL | MIC ([2]; E. coli MMX 1312 Parent (Table 52)): 0.03 µg/mL | MIC ([2]; E. coli MMX 1312 mutant selected on meropenem 4X MIC, colony A): 0.03 µg/mL | MIC ([2]; E. coli MMX 1312 mutant selected on meropenem 4X MIC, colony B): 0.03 µg/mL | MIC ([2]; E. coli MMX 1312 mutant selected on meropenem 4X MIC, colony C): 0.03 µg/mL | MIC ([2]; E. coli MMX 1312 mutant selected on meropenem 8X MIC, colony A): 0.03 µg/mL | MIC ([2]; E. coli MMX 1312 mutant selected on meropenem 8X MIC, colony B): 0.03 µg/mL | MIC ([2]; E. coli MMX 1312 mutant selected on meropenem 8X MIC, colony C): 0.03 µg/mL | MIC ([3]; B. fragilis ATCC 25285, selected on rifaximin 4X MIC, Colony A): 0.06 µg/mL | MIC ([3]; B. fragilis ATCC 25285, selected on rifaximin 4X MIC, Colony B): 0.12 µg/mL | MIC ([3]; B. fragilis ATCC 25285, selected on rifaximin 8X MIC, Colony A): 0.12 µg/mL | MIC ([3]; B. fragilis ATCC 25285, selected on rifaximin 8X MIC, Colony B): 0.12 µg/mL | MIC ([3]; B. fragilis ATCC 25285 Parent): 0.06 µg/mL | MIC ([3]; B. ovatus MMX 3503, selected on rifaximin 4X MIC, Colony A): 2 µg/mL | MIC ([3]; B. ovatus MMX 3503, selected on rifaximin 4X MIC, Colony B): 0.5 µg/mL | MIC ([3]; B. ovatus MMX 3503, selected on rifaximin 8X MIC, Colony A): 1 µg/mL | MIC ([3]; B. ovatus MMX 3503, selected on rifaximin 8X MIC, Colony B): 1 µg/mL | MIC ([3]; B. ovatus MMX 3503 Parent): 1 µg/mL | MIC ([3]; B. vulgatus ATCC 8482, selected on ceftriaxone 4X MIC, Colony A): 0.5 µg/mL | MIC ([3]; B. vulgatus ATCC 8482, selected on ceftriaxone 4X MIC, Colony B): 0.5 µg/mL | MIC ([3]; B. vulgatus ATCC 8482, selected on rifaximin 4X MIC, Colony A): 0.5 µg/mL | MIC ([3]; B. vulgatus ATCC 8482, selected on rifaximin 4X MIC, Colony B): 0.25 µg/mL | MIC ([3]; B. vulgatus ATCC 8482, selected on rifaximin 8X MIC, Colony A): 0.5 µg/mL | MIC ([3]; B. vulgatus ATCC 8482, selected on rifaximin 8X MIC, Colony B): 0.5 µg/mL | MIC ([3]; B. vulgatus ATCC 8482 Parent (Table 50)): 0.5 µg/mL | MIC ([3]; B. vulgatus ATCC 8482 Parent (Table 54)): 0.5 µg/mL
